# Data taken from ChEMBL document CHEMBL1201862, “PubChem BioAssay data set” (2004).
#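 Grown in 96-well plates, cells were treated for 48 hours with each compound at five concentrations. Insufficient inhibition: endpoint recorded as highest concentration tested. At the GI50, growth is halved.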 Active and inactive are the calls of the source. Rule as the data show it: active = GI50 up to about 1.1 µM and inactive = higher.
# Tests used:
# Test in all cases: NCI-60 cell line screen, 48 h
# LXFL 529 = test system: LXFL 529
# RXF 393 = test system: RXF 393
# CCRF-CEM = test system: CCRF-CEM
# RXF 631 = test system: RXF 631
# KM12 = test system: KM12
# KM-20L2 = test system: KM-20L2
# HT-29 = test system: HT-29
# A549 = test system: A549
# SW-620 = test system: SW-620
# UACC-257 = test system: UACC-257
# M14 = test system: M14
# SNB-19 = test system: SNB-19
# SN12C = test system: SN12C
# M19-MEL = test system: M19-MEL
# NCI-H460 = test system: NCI-H460
# UACC-62 = test system: UACC-62
# Malme-3M = test system: Malme-3M
# SF-268 = test system: SF-268
# SNB-75 = test system: SNB-75
# SNB-78 = test system: SNB-78
# HOP-92 = test system: HOP-92
# UO-31 = test system: UO-31
# SK-MEL-2 = test system: SK-MEL-2
# EKVX = test system: EKVX
# NCI-H522 = test system: NCI-H522
# ACHN = test system: ACHN
# XF498 = test system: XF498
# DLD-1 = test system: DLD-1
# OVCAR-3 = test system: OVCAR-3
# DMS-273 = test system: DMS-273
# K562 = test system: K562
# LOX IMVI = test system: LOX IMVI
# RPMI-8226 = test system: RPMI-8226
# HCT-116 = test system: HCT-116
# IGROV-1 = test system: IGROV-1
# HOP-62 = test system: HOP-62
# SF-539 = test system: SF-539
# HL-60 = test system: HL-60
# SK-MEL-28 = test system: SK-MEL-28
# SK-OV-3 = test system: SK-OV-3
# HOP-18 = test system: HOP-18
# MOLT-4 = test system: MOLT-4
# NCI-H23 = test system: NCI-H23
# 786-0 = test system: 786-0
# SK-MEL-5 = test system: SK-MEL-5
# OVCAR-5 = test system: OVCAR-5
# CAKI-1 = test system: CAKI-1
# HCT-15 = test system: HCT-15
# A498 = test system: A498
# COLO 205 = test system: COLO 205
# SF-295 = test system: SF-295
# TK-10 = test system: TK-10
# OVCAR-8 = test system: OVCAR-8
# OVCAR-4 = test system: OVCAR-4
# U-251 = test system: U-251
# NCI-H226 = test system: NCI-H226
# HCC 2998 = test system: HCC 2998
# NCI/ADR-RES = test system: NCI/ADR-RES
# Hs-578T = test system: Hs-578T
# PC-3 = test system: PC-3
# MDA-MB-435 = test system: MDA-MB-435
# MDA-N = test system: MDA-N
# MDA-MB-231 = test system: MDA-MB-231
# MCF7 = test system: MCF7
# T47D = test system: T47D
# DU-145 = test system: DU-145
# DMS-114 = test system: DMS-114
# BT-549 = test system: BT-549
smiles,measurement,setting,value
Cc1cc(C)nc(NS(=O)(=O)c2ccc(NC(=O)c3cccc4c(Nc5ccc(S(=O)(=O)Nc6nc(C)cc(C)n6)cc5)c5ccccc5nc34)cc2)n1,GI50,LXFL 529,21.3 µM (inactive)
same,GI50,RXF 393,14.7 µM (inactive)
same,GI50,CCRF-CEM,22.2 µM (inactive)
same,GI50,RXF 631,18.1 µM (inactive)
same,GI50,KM12,18.5 µM (inactive)
same,GI50,KM-20L2,20.1 µM (inactive)
same,GI50,HT-29,20 µM (inactive)
same,GI50,A549,25.8 µM (inactive)
same,GI50,SW-620,28.1 µM (inactive)
same,GI50,UACC-257,23 µM (inactive)
same,GI50,M14,25.1 µM (inactive)
same,GI50,SNB-19,10.2 µM (inactive)
same,GI50,SN12C,14.3 µM (inactive)
same,GI50,M19-MEL,29.5 µM (inactive)
same,GI50,NCI-H460,32 µM (inactive)
same,GI50,UACC-62,19.1 µM (inactive)
same,GI50,Malme-3M,27.6 µM (inactive)
same,GI50,SF-268,12.9 µM (inactive)
same,GI50,SNB-75,3.44 µM (inactive)
same,GI50,SNB-78,39.6 µM (inactive)
same,GI50,HOP-92,18.9 µM (inactive)
same,GI50,UO-31,17.7 µM (inactive)
same,GI50,SK-MEL-2,34 µM (inactive)
same,GI50,EKVX,24.2 µM (inactive)
same,GI50,NCI-H522,13.2 µM (inactive)
same,GI50,ACHN,23.4 µM (inactive)
same,GI50,XF498,33.6 µM (inactive)
same,GI50,DLD-1,19 µM (inactive)
same,GI50,OVCAR-3,19.9 µM (inactive)
same,GI50,DMS-273,17.9 µM (inactive)
same,GI50,K562,19.4 µM (inactive)
same,GI50,LOX IMVI,17.6 µM (inactive)
same,GI50,RPMI-8226,20.2 µM (inactive)
same,GI50,HCT-116,11.7 µM (inactive)
same,GI50,IGROV-1,32.8 µM (inactive)
same,GI50,HOP-62,21 µM (inactive)
same,GI50,SF-539,15.4 µM (inactive)
same,GI50,HL-60,18.1 µM (inactive)
same,GI50,SK-MEL-28,14.6 µM (inactive)
same,GI50,SK-OV-3,26 µM (inactive)
same,GI50,HOP-18,12.2 µM (inactive)
same,GI50,MOLT-4,22.4 µM (inactive)
same,GI50,NCI-H23,20.3 µM (inactive)
same,GI50,786-0,19.6 µM (inactive)
same,GI50,SK-MEL-5,16.6 µM (inactive)
same,GI50,OVCAR-5,> 10 µM (inactive)
same,GI50,CAKI-1,22.8 µM (inactive)
same,GI50,HCT-15,21.6 µM
same,GI50,A498,18.7 µM (inactive)
same,GI50,COLO 205,22.9 µM (inactive)
same,GI50,SF-295,21.4 µM (inactive)
same,GI50,TK-10,27.2 µM (inactive)
same,GI50,OVCAR-8,24.7 µM (inactive)
same,GI50,OVCAR-4,25.7 µM (inactive)
same,GI50,U-251,16.4 µM (inactive)
CC(C(=O)O)/C(=C\c1ccc2c(c1)OCO2)C(=O)O (stereo unspecified),GI50,NCI-H226,> 77.6 µM (inactive)
same,GI50,HCC 2998,> 100 µM (inactive)
same,GI50,LXFL 529,> 100 µM (inactive)
same,GI50,RXF 393,> 100 µM (inactive)
same,GI50,RXF 631,> 100 µM (inactive)
same,GI50,KM12,> 100 µM (inactive)
same,GI50,NCI/ADR-RES,> 100 µM (inactive)
same,GI50,KM-20L2,> 100 µM (inactive)
same,GI50,HT-29,> 61.5 µM (inactive)
same,GI50,A549,> 100 µM (inactive)
same,GI50,SW-620,> 100 µM (inactive)
same,GI50,UACC-257,> 100 µM (inactive)
same,GI50,Hs-578T,> 100 µM (inactive)
same,GI50,M14,> 100 µM (inactive)
same,GI50,SNB-19,> 100 µM (inactive)
same,GI50,SN12C,> 100 µM (inactive)
same,GI50,M19-MEL,> 100 µM (inactive)
same,GI50,NCI-H460,> 100 µM (inactive)
same,GI50,UACC-62,> 100 µM (inactive)
same,GI50,Malme-3M,> 100 µM (inactive)
same,GI50,SF-268,> 100 µM (inactive)
same,GI50,SNB-75,> 100 µM (inactive)
same,GI50,PC-3,> 100 µM (inactive)
same,GI50,HOP-92,> 100 µM (inactive)
same,GI50,UO-31,> 100 µM (inactive)
same,GI50,SK-MEL-2,> 100 µM (inactive)
same,GI50,EKVX,> 53.6 µM (inactive)
same,GI50,MDA-MB-435,> 100 µM (inactive)
same,GI50,MDA-N,> 100 µM (inactive)
same,GI50,NCI-H522,> 100 µM (inactive)
same,GI50,ACHN,> 100 µM (inactive)
same,GI50,XF498,> 100 µM (inactive)
same,GI50,DLD-1,> 100 µM (inactive)
same,GI50,OVCAR-3,> 100 µM (inactive)
same,GI50,DMS-273,> 100 µM (inactive)
same,GI50,K562,> 92.5 µM (inactive)
same,GI50,LOX IMVI,> 100 µM (inactive)
same,GI50,RPMI-8226,> 100 µM (inactive)
same,GI50,HCT-116,> 100 µM (inactive)
same,GI50,IGROV-1,> 100 µM (inactive)
same,GI50,HOP-62,> 100 µM (inactive)
same,GI50,SF-539,> 100 µM (inactive)
same,GI50,HL-60,0.0226 µM (active)
same,GI50,SK-MEL-28,> 100 µM (inactive)
same,GI50,SK-OV-3,> 100 µM (inactive)
same,GI50,HOP-18,> 100 µM (inactive)
same,GI50,MOLT-4,> 6.89 µM (inactive)
same,GI50,MDA-MB-231,> 100 µM (inactive)
same,GI50,NCI-H23,> 100 µM (inactive)
same,GI50,MCF7,> 100 µM (inactive)
same,GI50,T47D,> 100 µM (inactive)
same,GI50,786-0,> 100 µM (inactive)
same,GI50,SK-MEL-5,> 100 µM (inactive)
same,GI50,OVCAR-5,> 10 µM (inactive)
same,GI50,DU-145,> 100 µM (inactive)
same,GI50,CAKI-1,> 100 µM (inactive)
same,GI50,HCT-15,> 100 µM
same,GI50,A498,> 100 µM (inactive)
same,GI50,DMS-114,> 100 µM (inactive)
same,GI50,COLO 205,> 100 µM (inactive)
same,GI50,SF-295,> 100 µM (inactive)
same,GI50,TK-10,> 100 µM (inactive)
same,GI50,OVCAR-8,> 100 µM (inactive)
same,GI50,OVCAR-4,> 100 µM (inactive)
same,GI50,BT-549,> 100 µM (inactive)
same,GI50,U-251,> 100 µM (inactive)
